Assay results reported in publication PMC6080781, “ATP competes with PIP2 for binding to gelsolin” (PLoS ONE, 2018).
Where two headings read alike, the source gives them in different places. One block for each compound: values may come before it.

Experiments:
gelsolin [1] = conditions: equilibrium dialysis, high NaCl concentrations, cited from earlier work
[2] = parameters: method as in A.G. Scientific Inc.; conditions: ref A.G. Scientific Inc.; read-out: dissociation constant for calcium ions; cited from earlier work
gelsolin [3] = molecular target: T1, gelsolin (Homo sapiens, UniProt P06396); experiment: Steady-state fluorescence anisotropy of ATP-N binding to gelsolin
T1 construct: His tag (cleaved yes); made in house; host or cells: E. coli Rosetta2 (DE3) pLysS, pSY5 plasmid
T1 sequence (P06396 28-782): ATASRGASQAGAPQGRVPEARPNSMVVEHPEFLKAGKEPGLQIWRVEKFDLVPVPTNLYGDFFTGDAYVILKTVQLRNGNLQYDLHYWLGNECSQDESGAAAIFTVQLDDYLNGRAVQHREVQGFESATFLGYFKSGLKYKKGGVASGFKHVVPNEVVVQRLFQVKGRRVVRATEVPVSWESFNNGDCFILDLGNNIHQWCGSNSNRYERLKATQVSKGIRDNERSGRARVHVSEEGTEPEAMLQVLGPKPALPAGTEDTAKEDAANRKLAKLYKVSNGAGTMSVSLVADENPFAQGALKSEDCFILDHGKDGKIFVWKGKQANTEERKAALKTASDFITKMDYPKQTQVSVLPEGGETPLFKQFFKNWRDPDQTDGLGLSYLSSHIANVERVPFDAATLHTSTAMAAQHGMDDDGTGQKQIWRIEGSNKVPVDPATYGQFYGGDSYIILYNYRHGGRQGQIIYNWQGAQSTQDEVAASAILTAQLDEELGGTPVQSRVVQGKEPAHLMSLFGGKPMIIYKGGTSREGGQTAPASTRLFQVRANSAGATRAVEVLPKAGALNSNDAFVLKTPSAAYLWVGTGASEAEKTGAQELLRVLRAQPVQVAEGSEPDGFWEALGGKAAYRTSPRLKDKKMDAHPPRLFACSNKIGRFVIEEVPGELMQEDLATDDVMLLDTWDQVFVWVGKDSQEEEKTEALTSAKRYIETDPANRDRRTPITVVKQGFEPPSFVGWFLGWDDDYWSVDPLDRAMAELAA
Experimental: (§1) His-tagged human wild-type gelsolin was expressed in E. coli strain Rosetta2 (DE3) pLysS cells from a pSY5 plasmid. […] Traces of calcium were removed by dialysis (2 mM Tris-HCl, 1 mM EGTA, pH 7.4, overnight). Rabbit skeletal muscle actin was prepared from acetone powder (Pel-Freez Biologicals) in a protocol modified from Spudich and Watt. Actin was stored in buffer A (2 mM Tris-HCl, 0.2 mM ATP (ATP disodium trihydrate, Sigma-Aldrich), 0.1 mM CaCl2 (pCa 4), 0.1 mM DTT and 0.005% NaN3, pH 7.4). Alexa Fluor^TM 488 C5 Maleimide (Life Technologies) was used to label cysteine residues of gelsolin based on the manufacturer’s recommendations (Thermo Fisher Scientific).
(§2) We used a fluorescent derivative of PIP2 (PtdIns-(4,5)-P2-fluorescein, Cayman Chemicals, NU-10010388, λex = 493 nm, λem = 520 nm, abbreviated as PIP2-F) and a fluorescent derivative of ATP (N^6-(6-amino)hexyl-ATP-ATTO-532, Jena Bioscience, NU-805-532, λex = 532 nm, λem = 553 nm, abbreviated as ATP-N) as probes for the binding of PIP2 and ATP to gelsolin. Fluorescence intensities were measured on a Safire^2 monochromator microplate reader (TECAN) at 22°C. Steady-state fluorescence anisotropy values were determined according to Eq 1 [65], where IVV and IVH, respectively, are the intensities of vertically and horizontally polarized emission on excitation with vertically polarized light, with the correction factor, G, being the ratio of IVH/IVV.
(§3) The dissociation constants for ATP and PIP2 were calculated using a hyperbolic model from anisotropy data that had reached saturation during the gelsolin titrations Eq 2: r=rf+(rb−rf)(Kd+[G]+[L]−(Kd+[G]+[L])^2−4[G][L]/2[L]) (2) where rf is the anisotropy of free ligand, rb is the anisotropy of gelsolin-bound ligand, [L] is the total concentration of ligand, Kd is the dissociation constant and [G] is the total concentration of gelsolin. The anisotropy of 0.5 μM ATP-N was measured in the presence of gelsolin concentrations: 0, 0.2, 1.5, 2, 3, 5 and 8 μM. Saturation was evident at 5 μM characterized by an anisotropy value of 0.15 ± 0.006. The calcium and magnesium sensitivities of ATP binding to gelsolin were characterized by the change in anisotropy of solutions containing 0.5 μM ATP-N in the presence of 5 μM of gelsolin over a range of divalent cation concentrations of pCa 2–12 or pMg 1–12, where pCa and pMg refer to[…]. […] Anisotropy of 0.5 μM or 0.25 μM solutions of PIP2-F in the presence of 5 μM gelsolin was used to probe the changes in binding of the complexes under different calcium, magnesium, salt and ATP conditions.

gelsolin [4] = molecular target: T1, gelsolin; experiment: Steady-state fluorescence anisotropy of PIP2-F binding to gelsolin
Experimental: as §1, §2
as §3, with “Saturation was evident at 5 μM characterized by an anisotropy value of 0.15 ± 0.006.” left out

[5] = Fluorescence emission of ATP-N with cations in the absence of gelsolin (precipitation); assay type: physicochemical
Experimental: Supplementary file pone.0201826.s005.pdf: S5 Fig Assessment of the effects of calcium and ATP on the binding of ATP-N and PIP2-F to gelsolin. (A) Kds were calculated from the fit data with Eq 2 of gelsolin:PIP2-F binding under different calcium concentrations in the absence or presence of ATP. In the absence of ATP, PIP2-F (0.5 μM) binds to gelsolin, as reflected by thehigh affinity, across a wide range of calcium concentrations. […] (B) In the absence of gelsolin, calcium directly precipitates ATP-N (C, open triangles) with a half-maximum value of 70.4 ± 0.7 μM. Magnesium has no effect on the fluorescence emission of ATP-N either in the absence (M, orange circles) or presence of 10 μM calcium (MC, purple squares). Data were fitted with simple sigmoidal curves. (C) The reported FURA-2FF dissociation constant for calcium ions is 25 μM (A.G. Scientific Inc.). The calcium-dependent fluorescence emission profile of FURA-2FF (2 μM) over pCa range of 5–7 was similar in the presence and absence of 20 μM PIP2, which were fitted with simple sigmoidal curves. […] The measurement was carried out with a Perkin Elmer LS-55 spectrofluorimeter (λex = 340 nm, λem = 505 nm). (PDF) Click here for additional data file.

[6] = Critical micelle concentration by dynamic light scattering; assay type: physicochemical
Experimental: tested, PIP2-F was free from micelle formation at concentrations of 0.5 µM or below, whereas […]
Methods: The critical micelle concentrations of PIP2 and 1-(1-octadecanoyl-fluorescein-2R-octadecanoylphosphatidyl)inositol-4,5-bisphosphate (Cayman Chemical, abbreviated as PIP2-F) were determined by dynamic light scattering (Huang et al., 2011). Fifty microliter samples were prepared by serial dilution of PIP2 or PIP2-F into a low salt buffer (2 mM Tris-HCl, pH 7.4), or the same buffer supplemented with 100 mM KCl, 1 mM MgCl2, and/or 1 mM CaCl2. After incubation for 30 min, the samples were centrifuged at 15,000 x g for 10 min, transferred into a 384-well clear bottom plate, and light scattering was measured using a Wyatt Dynapro plate reader at room temperature. The concentrations of PIP2-F were subsequently determined by light absorbance at 494 nm with a Nanodrop spectrophotometer. […]
Huang, W., Jiang, D., Wang, X., Wang, K., Sims, C. E., Allbritton, N. L. and Zhang, Q.

[7] = 0.5 μM ATP-N, 5 μM gelsolin, sigmoidal fitting

Compound: Nc1nc2c(ncn2[C@@H]2O[C@H](COP(=O)(O)OP(=O)(O)O)[C@@H](O)[C@H]2O)c(=O)[nH]1 [GDP]
association with gelsolin (gelsolin [1]): no significant association

Compound: FURA-2FF
Kd [2]: 25 µM

Compound: N^6-(6-amino)hexyl-ATP-ATTO-532 [ATP-N]
anisotropy of ATP-N at saturation (gelsolin [3]; 0.5 μM ATP-N, 5 μM gelsolin): 0.15 ± 0.006 | Kd (gelsolin [3]; 0.5 μM ATP-N, absence of divalent cations): 710 ± 520 nM | Kd (gelsolin [3]; 50 mM KCl, 1 mM MgCl2 (pMg 3), titration with gelsolin): 1800 nM | Kd (gelsolin [3]; 100 mM KCl): 1270 ± 600 nM | Kd (gelsolin [3]; 100 mM KCl, 1 mM MgCl2 (pMg 3)): 1580 ± 850 nM | Kd (gelsolin [3]; 120 mM KCl): 1420 ± 270 nM | Kd (gelsolin [3]; 120 mM KCl, 1 mM MgCl2 (pMg 3)): 2340 ± 730 nM | Kd (gelsolin [3]; actin polymerization conditions, above 100 μM calcium): 8050 ± 1320 nM

Compound: Nc1nc2c(ncn2[C@@H]2O[C@H](COP(=O)(O)OP(=O)(O)OP(=O)(O)O)[C@@H](O)[C@H]2O)c(=O)[nH]1 [GTP]
Kd (gelsolin [1]; read-out: dissociation constant for gelsolin): 1800 nM

Compound: Nc1ncnc2c1ncn2[C@@H]1O[C@H](COP(=O)(O)OP(=O)(O)O)[C@@H](O)[C@H]1O [ADP]
association with gelsolin (gelsolin [1]): no significant association

Results, then the compound that gave them:

magnesium concentration above which the ATP effect on gelsolin/PIP2-F is diminished (gelsolin [4]; 0.5 mM ATP, 0.5 μM PIP2-F, 5 μM gelsolin): above 7 mM | inflection point (pMg) of ATP-N anisotropy decrease (gelsolin [3]; [7]): 2.3 | IC50 (gelsolin [3]; 0.5 μM ATP-N, 5 μM gelsolin, read-out: magnesium concentration at which 50% of ATP-N remains bound to gelsolin): 5 ± 1.1 mM | effect on the fluorescence emission of ATP-N ([5]; absence or presence of 10 μM calcium): no effect
Compound: [Mg+2] [magnesium]

inflection point (pCa) of ATP-N anisotropy decrease (gelsolin [3]; [7]): 5.2 | IC50 (gelsolin [3]; 0.5 μM ATP-N, 5 μM gelsolin, read-out: calcium concentration at which 50% of ATP-N remains bound to gelsolin): 0.0063 ± 0.0002 mM | half-maximum value of calcium for precipitation of ATP-N [5]: 70.4 ± 0.7 µM
Compound: [Ca+2] [calcium]

steady-state anisotropy of PIP2-F with gelsolin (gelsolin [4]; 0.5 μM PIP2-F, 5 μM gelsolin, no ATP, 1 mM Ca2+ (pCa 3)): 0.04 | steady-state anisotropy of PIP2-F with gelsolin (gelsolin [4]; 0.5 μM PIP2-F, 5 μM gelsolin, no ATP, ≈0–10 μM Ca2+ (pCa 15–5)): approximately 0.12 | Kd (gelsolin [4]; 0.5 μM PIP2-F, absence of divalent cations, read-out: Kd of PIP2-F for gelsolin): 840 ± 390 nM | Kd (gelsolin [4]; 100 mM KCl, read-out: Kd of PIP2-F for gelsolin): 1350 ± 700 nM | Kd (gelsolin [4]; 120 mM KCl, read-out: Kd of PIP2-F for gelsolin): 3120 ± 1700 nM | Kd (gelsolin [4]; actin polymerization conditions (10 μM Ca2+, 1 mM Mg2+, 50 mM K+), absence of ATP, read-out: Kd of PIP2-F for gelsolin): 2700 ± 200 nM | Kd (gelsolin [4]; no ATP, 1–10 μM calcium (pCa 6–5), absence of KCl and magnesium, read-out: Kd of PIP2-F/gelsolin interaction): < 1000 nM | Kd (gelsolin [4]; no ATP, entire calcium range, absence of KCl and magnesium, read-out: Kd of PIP2-F/gelsolin interaction): < 20000 nM | CMC of PIP2-F ([6]; 1 mM CaCl2 with 100 mM KCl or 100 mM KCl and 1 mM MgCl2): ~ 0.5 μM | CMC of PIP2-F ([6]; absence of calcium): ~ 10 μM | micelle formation ([6]; at or below 0.5 μM, buffer conditions tested): failed to form micelles
Compound: PtdIns-(4,5)-P2-fluorescein [PIP2-F]
